# Molecular target: T1, PfENT1 (Plasmodium falciparum, UniProt Q8IDM6)
# T1 construct: expressed in transfected cells; host or cells: fui1Δ yeast (Saccharomyces cerevisiae), co-expressing GFP
# Assay type: cell-based
# Settings: primary HTS, compounds at 10 μM, 125 μM 5-FUrd
# Protocol: A yeast-based high throughput screening (HTS) assay was used to identify compounds that inhibit PfENT1. The compounds described in this application were identified by screening four commercially available, chemical compound libraries obtained from Dr. Donald Landry's laboratory (Department of Medicine, Columbia University). These libraries contain approximately 80,000 unique chemical entities.
# In the primary screen the compounds were tested at a concentration of 10 μM. Hits were identified by the growth of fui1Δ yeast expressing PfENT1 and Green Fluorescent Protein (GFP) in the presence of the cytotoxic nucleoside 5-fluorouridine (5-FUrd). 5-FUrd is transported by PfENT1. PfENT1 expressing fui1Δ yeast will only grow in the presence of 125 μM 5-FUrd if a PfENT1 inhibitor blocks the uptake of 5-FUrd into the yeast. Significant yeast growth in the HTS in 384 well plates was determined by two criteria: 1) turbidity as determined by the optical density at 620 nm (OD620) and 2) GFP fluorescence intensity. […] Hits had to be positive by both criteria.
# T1 sequence (Q8IDM6 whole entry): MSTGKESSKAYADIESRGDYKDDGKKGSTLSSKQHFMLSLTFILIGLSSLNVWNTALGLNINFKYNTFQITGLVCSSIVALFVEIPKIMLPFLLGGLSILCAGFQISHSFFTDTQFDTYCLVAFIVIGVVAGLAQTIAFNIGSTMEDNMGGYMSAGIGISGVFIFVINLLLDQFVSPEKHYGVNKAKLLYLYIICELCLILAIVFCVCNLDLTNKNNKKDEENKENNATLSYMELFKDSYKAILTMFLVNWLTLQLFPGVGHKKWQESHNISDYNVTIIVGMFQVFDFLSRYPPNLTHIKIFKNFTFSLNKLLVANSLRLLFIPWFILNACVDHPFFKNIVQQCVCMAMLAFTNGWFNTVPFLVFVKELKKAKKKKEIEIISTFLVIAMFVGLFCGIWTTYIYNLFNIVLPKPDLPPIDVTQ
row,Compound,Avg Normalized % maximal activity [%]
1,"CSc1ccccc1C(=O)Nc1nc(=O)c2ccccc2[nH]1 [compound 90, 2-(methylthio)-N-(4-oxo-1,4-dihydro-2-quinazolinyl)benzamide]",5.22
2,"CCOC(=O)c1ccc(NC(=O)c2nc(SC)ncc2Cl)cc1 [compound 91, ethyl 4-({[5-chloro-2-(methylthio)-4-pyrimidinyl]carbonyl}amino)benzoate]",5.19
3,"COc1ccc(-c2cnc3ccccc3n2)cc1NC(=O)c1cccs1 [compound 92, N-(2-methoxy-5-(2-quinoxalinyl)phenyl]-2-thiophenecarboxamide]",5.16
4,"Cc1cc(C)cc(C(=O)Nc2nnc(C)s2)c1 [compound 94, 3,5-dimethyl-N-(5-methyl-1,3,4-thiadiazol-2-yl)benzamide]",5.01
5,C[C@H]1CC[C@]2(NC1)O[C@H]1C[C@H]3[C@@H]4CC[C@H]5C[C@@H](O[C@@H]6O[C@H](CO)[C@H](O[C@@H]7O[C@H](CO)[C@@H](O)[C@H](O[C@@H]8OC[C@@H](O)[C@H](O)[C@H]8O)[C@H]7O[C@@H]7O[C@H](CO)[C@@H](O)[C@H](O)[C@H]7O)[C@H](O)[C@H]6O)CC[C@]5(C)[C@H]4CC[C@]3(C)[C@H]1[C@@H]2C [compound 95],5.00
6,"O=C(Nc1cccc(-c2nc3ncccc3o2)c1)c1ccccc1F [compound 96, 2-fluoro-N-(3-[1,3]oxazolo [4,5-b]pyridin-2-ylphenyl)benzamide]",4.92
7,"CNC(=O)c1nc(-c2ccc(Cl)cc2)no1 [compound 97, 3-(4-chlorophenyl)-N-methyl-1,2,4-oxadiazole-5-carboxamide]",4.86
8,"COC(=O)c1ccccc1NC(=O)c1ccc(NC(=O)C2CCCO2)cc1 (stereo not drawn) [compound 99, methyl 2-({4-[(tetrahydro-2-furanylcarbonyl)amino]benzoyl}amino)benzoate]",4.83
9,O=C(Nc1cccnc1)c1cc2cc(C3CC3)cc(C(F)(F)F)n2n1 [compound 100],4.83
10,"COc1cc(NC(=O)c2cccc(Br)c2)nc(OC)n1 [compound 101, 3-bromo-N-(2,6-dimethoxy-4-pyrimidinyl)benzamide]",4.78
11,O=C1OC(CO)[C@@H](O)C(O)C1O (stereo partly drawn) [compound 102],4.76
12,"O=C(Nc1cc(-c2nc3ccccc3[nH]2)ccc1Cl)c1ccco1 [compound 103, N-[5-(1H-benzimidazol-2-yl)-2-chlorophenyl]-2-furamide]",4.74
13,"Cc1cccc(N2C(=O)CC(NC3CCCC3)C2=O)c1 (stereo not drawn) [compound 104, 3-(cyclopentylamino)-1-(3-methylphenyl)-2,5-pyrrolidinedione]",4.72
14,"Cc1ccccc1C(=O)Nc1ccc(-c2nc3ncccc3o2)cc1 [compound 105, 2-methyl-N-(4-[1,3]oxazolo[4,5-b]pyridin-2-ylphenyl)benzamide]",4.70
15,"COc1ccc(NC(=O)C2Cc3ccccc3C(=O)O2)cc1 (stereo not drawn) [compound 106, N-(4-methoxyphenyl)-1-oxo-3,4-dihydro-1H-isochromene-3-carboxamide]",4.69
16,"COc1ccc(N(CC(=O)Nc2ccc(Cl)cc2)S(C)(=O)=O)c(OC)c1 [compound 107, N~1~-(4-chlorophenyl)-N~2~-(2,4-dimethoxyphenyl)-N~2~-(methylsulfonyl)glycinamide]",4.67
17,"CCc1nnc(NC(=O)c2sc3nc(C)cc(COC)c3c2N)s1 [compound 108, 3-amino-N-(5-ethyl-1,3,4-thiadiazol-2-yl)-4-(methoxymethyl)-6-methylthieno [2,3-b]pyridine-2-carboxamide]",4.66
18,CNC[C@H](O)[C@@H](O)[C@H](O)[C@H](O)CO [compound 109],4.65
19,"O=C(Nc1ccc(-c2nnc(-c3ccco3)o2)cc1)C1CCCCC1 [compound 110, N-{4-[5-(2-furyl)-1,3,4-oxadiazol-2-yl]phenyl} cyclohexane-carboxamide]",4.61
20,"COCCNCCOc1ccc(C(C)(C)C)cc1C.O=C(O)C(=O)O [compound 111, [2-(4-tert-butyl-2-methylphenoxy)ethyl](2-methoxyethyl)amine oxalate]",4.58
21,"COC(=O)c1ccccc1NC(=O)c1cccc(NC(=O)c2cccs2)c1C [compound 112, methyl 2-({2-methyl-3-[(2-thienylcarbonyl)amino]benzoyl}amino)benzoate]",4.55
22,"CCSc1nnc(NC(=O)c2cccc(OC)c2)s1 [compound 113, N-[5-(ethylthio)-1,3,4-thiadiazol-2-yl]-3-methoxybenzamide]",4.39
23,"CCC(=O)Nc1cccc(-c2nnc(-c3ccccc3C)o2)c1 [compound 114, N-{3-[5-(2-methylphenyl)-1,3,4-oxadiazol-2-yl]phenyl} propanamide]",4.37

row,Compound,Avg Normalized % maximal activity [%]
1,"Cc1ccc(NC(=O)CSc2nccn2C)cc1C [compound 115, N-(3,4-dimethylphenyl)-2-[(1-methyl-1H-imidazol-2-yl)thio]acetamide]",4.36
2,"O=C(Nc1cccc(NC(=O)c2cccs2)c1)c1cc2ccccc2o1 [compound 116, N-{3-[(2-thienylcarbonyl)amino]phenyl)-1-benzofuran-2-carboxamide]",4.34
3,"COc1cc(NC(=O)CSc2nccc(C)n2)c(OC)cc1Cl [compound 117, N-(4-chloro-2,5-dimethoxyphenyl)-2-[(4-methyl-2-pyrimidinyl)thio]acetamide]",4.28
4,"Nc1nc(N)n(-c2ccccc2)n1 [compound 118, 1-phenyl-1H-1,2,4-triazole-3,5-diamine]",4.28
5,"COCc1cc(C)nc2sc(C(=O)Nc3ccc(C(=O)OC)cc3)c(N)c12 [compound 119, methyl 4-({[3-amino-4-(methoxymethyl)-6-methylthieno[2,3-b]pyridin-2-yl]carbonyl}amino)benzoate]",4.25
6,CC(=O)[C@H]1CC[C@H]2[C@@H]3C[C@H](C)C4=CC(=O)CC[C@]4(C)[C@H]3[C@@H](O)C[C@]12C [compound 121],4.13
7,"COc1c(C)cccc1C(=O)Nc1cc(-c2nc3ncccc3o2)ccc1C [compound 122, 2-methoxy-3-methyl-N-(2-methyl-5-[1,3]oxazolo[4,5-b]pyridin-2-ylphenyl)benzamide]",4.13
8,"CC(C)c1nnc(NC(=O)c2cccc(I)c2)s1 [compound 123, 3-iodo-N-(5-isopropyl-1,3,4-thiadiazol-2-yl)benzamide]",4.10
9,"COc1ccc(OC)c(NC(=O)N2CCN(c3cc(Cl)ccc3C)CC2)c1 [compound 124, 4-(5-chloro-2-methylphenyl)-N-(2,5-dimethoxyphenyl)-1-piperazine-carboxamide]",3.95
10,"CCSc1nnc(NC(=O)c2cc(Br)ccc2Cl)s1 [compound 125, 5-bromo-2-chloro-N-[5-(ethylthio)-1,3,4-thiadiazol-2-yl]benzamide]",3.89
11,"COc1ccc(NC(=O)C2(c3ccccc3)CCCC2)cc1 [compound 126, N-(4-methoxyphenyl)-1-phenylcyclopentane-carboxamide]",3.87
12,COc1c(C)c2c(c(O)c1C/C=C(\C)CCC(=O)OCCN1CCOCC1)C(=O)OC2 [compound 127],3.85
13,"COc1ccc(/C=C/c2nc(C#N)c(N3CCCCC3)o2)cc1OC [compound 128, 2-[2-(3,4-dimethoxyphenyl)vinyl]-5-(1-piperidinyl)-1,3-oxazole-4-carbonitrile]",3.74
14,CC(C)[C@@H]1CC[C@@H](C)CC1=O [compound 129],3.73
15,"O=C(C1CCCCC1)N1CCN(c2ccccn2)CC1 [compound 130, 1-(cyclohexylcarbonyl)-4-(2-pyridinyl)piperazine]",3.69
16,"CC[S+](CC)c1c([O-])[nH]c(=O)n(Cc2ccc(F)cc2)c1=O [compound 131, 5-(diethylsulfonio)-1-(4-fluorobenzyl)-2,6-dioxo-1,2,3,6-tetrahydro-4-pyrimidinolate]",3.65
17,O=C(Nc1ccc(-c2nnc(-c3ccccc3)o2)cc1)c1ccccc1Cl [compound 132],3.60
18,"COc1ccc(C2CC(c3ccccc3C)n3nc(N)nc3N2)cc1 (stereo not drawn) [compound 133, 5-(4-methoxyphenyl)-7-(2-methylphenyl)-4,5,6,7-tetrahydro[1,2,4] triazolo[1,5-a]pyrimidin-2-amine]",3.57
19,"Cc1cc(=O)oc2cc(OCc3ccc4c(c3)OCO4)ccc12 [compound 134, 7-(1,3-benzodioxol-5-ylmethoxy)-4-methyl-2H-chromen-2-one]",3.56
20,C[N+]1(C)C2CC(OC(=O)[C@H](CO)c3ccccc3)CC1C1OC12 (stereo partly drawn) [compound 135],3.47
21,Cc1ccc2n1CCN(C(=O)c1ccc(S(=O)(=O)N(C)C)cc1)C2C (stereo not drawn) [compound 136],3.43
22,"O=C(Nc1cccc(NC(=O)c2cccs2)c1)c1ccc(Br)o1 [compound 137, 5-bromo-N-{3-[(2-thienylcarbonyl)amino]phenyl}-2-furamide]",3.37

# From patent US9695193B2, “Inhibitors of Plasmodium falciparum equilibrative nucleoside transporter type I as anti-parasitic compounds” (The Trustees of Columbia University in the City of New York, priority 2013, dated 2017)
